Reference: US11401243B2, “Quinoline derived small molecule inhibitors of nicotinamide N-methyltransferase (NNMT) and uses thereof” (priority 2017, dated 2022)
“Also recorded” adds a separate entry of the source.

Tests used:
[1] = Parallel artificial membrane permeability assay (PAMPA); assay type: in vitro ADME; conditions: for Permeability Classification (passive transport): BCS classification
Protocol: Samples were tested in triplicates in three separate experiments.

[2] = target: T1, human NNMT (mt-hNNMT) (Homo sapiens, UniProt P40261, E101A/E103A/K100A); experiment: NNMT activity assay (HPLC-UV detection of MNA), NNMT IC50 curves; conditions: for IC50: NNMT Inhibition IC50, mean ± SD of duplicate or triplicate measurements, NI = no observable inhibition
T1 sequence (P40261 1-261 K100A/E101A/E103A limits assumed): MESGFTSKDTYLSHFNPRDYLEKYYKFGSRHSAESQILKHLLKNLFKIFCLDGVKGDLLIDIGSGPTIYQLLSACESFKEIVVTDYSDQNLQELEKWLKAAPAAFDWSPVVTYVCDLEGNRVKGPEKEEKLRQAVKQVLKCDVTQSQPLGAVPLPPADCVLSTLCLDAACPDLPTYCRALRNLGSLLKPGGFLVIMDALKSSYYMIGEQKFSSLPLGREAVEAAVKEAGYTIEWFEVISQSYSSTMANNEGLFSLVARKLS

[3] = Bi-directional permeability assay with Caco-2 cells; conditions: human
[4] = tested on: Caco-2 cells; experiment: as above; conditions: Caco-2; listed as 7-amino-1MQ
[5] = tested on: 3T3-L1 pre-adipocytes cells; experiment: MTT cell viability assay; assay type: cell-based; conditions: 3T3-L1 pre-adipocytes, 24 h
Protocol: Cells were treated for 24 h with 0.1-600 μM NNMT inhibitors in cell culture media. A 24 h time point was chosen based on a previous report of using this time period for transfecting or treating 3T3-L1 cells with NNMT anti-sense oligonucleotides or a small molecule NNMT product inhibitor (1-MNA), respectively, for phenotypic measures. MTT (3-(4,5-dimethylthiazol-2-yl)-2,5-diphenyltetrazolium bromide) (ATCC; Manassas, Va., USA) was added to each well and assayed according to the manufacturer's instructions. Absorbance corresponding to the amount of formazan dye produced by treated cells was normalized to that produced by control (untreated) cells to calculate % viable cells in the treated samples.

[6] = 400 μM in PBS, 4 h, room temperature

Row | IC50 [2] [µM] | Molecule | also measured
1 | 2.9 | C[n+]1cc(N)cc2ccccc21 [1d] | –
2 | 23.8 ± 5.6 | C[n+]1cc(C#N)cc2ccccc21 [1e] | –
3 | 7.5 ± 2.2 | Cc1cc[n+](C)c2ccccc12 [1h] | –
4 | 11.4 ± 2.1 | C[n+]1ccc(N)c2ccccc21 [1i] | –
5 | 5.7 ± 1.8 | C[n+]1cccc2cc(F)ccc21 [1k] | –
6 | 120 ± 50.1 | COc1ccc2c(ccc[n+]2C)c1 [1n] | –
7 | 709 ± 179 | C[n+]1cccc2ccc(O)cc21 [1p] | –
8 | 95.2 ± 21 | C[n+]1cccc2cccc(O)c21 [1r] | –
9 | 27.1 ± 5.4 | CC[n+]1cccc2ccccc21 [1s] | –
10 | > 1000 | COCC[n+]1cccc2ccccc21 [1t] | –

Second part, the molecule before the results:

Row | Molecule | IC50 [2] [µM] | also measured
11 | 1-methylnicotinamide [reference compound] | – | Flux [1, 6]: 0 cm/s; Permeability Classification (passive transport) [1]: No permeability; Permeability Classification (passive transport) ([1]; listed as 1-MNA): no passive permeability
12 | C[n+]1cccc2ccccc21 [1a, 1-methylquinolinium] | 12.1 ± 3.1 | Flux [1, 6]: 0 cm/s; Permeability Classification (passive transport) [1]: No permeability; Permeability Classification (passive transport) ([1]; listed as 1-MQ): lacked passive diffusion properties
13 | Cc1ccc2ccccc2[n+]1C [1b] | 21 ± 2.1 | –
14 | C[n+]1c(N)ccc2ccccc21.[I-] [1c, 2-amino-1-methylquinolin-1-ium Iodide] | 6.3 ± 1.1 | inhibitory activity against NNMT (in words) [2]: exhibited inhibitory activity
15 | CNc1cc2ccccc2[n+](C)c1.[I-] [1f, 1-methyl-3-(methylamino)quinolin-1-ium Iodide] | 4 ± 1.5 | inhibitory activity against NNMT (in words) [2]: exhibited inhibitory activity
16 | C[n+]1cc(Nc2ccccc2)cc2ccccc21 [1g] | > 1000 | –
17 | C[n+]1cccc2cc(N)ccc21.[I-] [1m, 6-amino-1-methylquinolin-1-ium Iodide] | 34.4 ± 9.6 | inhibitory activity against NNMT (in words) [2]: exhibited inhibitory activity
18 | C[n+]1cccc2ccc(N)cc21 [1o] | 2.6 ± 0.5 | efflux ratio at 2 h, 10 μM ([3]; Caco-2): 1.52; Papp A→B at 2 h, 10 μM ([3]; Caco-2, pH 7.4): 26 ×10⁻⁶ cm/s; Papp B→A at 2 h, 10 μM ([3]; Caco-2, pH 7.4): 39.6 ×10⁻⁶ cm/s; Classification (active transport / efflux) [4]: no detectable efflux; also recorded: High permeability; cell viability ([5]; 10 μM): did not impact cell viability; cytotoxicity ([5]; 600 μM (highest concentration tested)): ~40%; cytotoxicity relative to untreated cells ([5]; 100-300 μM): modest cytotoxicity; Papp at 4 h, 400 μM ([1]; 400 μM in PBS, 4 h, room temperature, read-out: Flux): 2.05 ×10⁻⁶ cm/s; Permeability Classification (passive transport) ([1]; listed as 7-amino-1MQ): high passive and active transport; also recorded: High permeability
19 | O=C(C[n+]1cccc2ccccc21)c1ccccc1 [1u] | > 1000 | –
